*1 amine or outer side, *2 acyl side, *3 side chain or, on linkers, in order; H or OH if unused. Where a SMILES comes first, the peptide text is derived from it. Bridges are numbered along the chain shown (N, C = ends). [ ]: non-standard residue; d: D form. Phe(4-guanidino) = N=C(N)Nc1ccc(C[C@H](N)C(=O)O)cc1; X78 = Nc1ccnc2ccc(C[C@H](N[*:1])C(=O)[*:2])cc12; Abu(4,4,4-F3) = N[C@@H](CC(F)(F)F)C(=O)O; Leu(4,5-dehydro) = C=C(C)C[C@H](N)C(=O)O; Phe(4-Cl) = N[C@@H](Cc1ccc(Cl)cc1)C(=O)O; Arg(Me2s) = CN=C(NC)NCCC[C@H](N)C(=O)O; Phe(4-F) = N[C@@H](Cc1ccc(F)cc1)C(=O)O; 1Nal = N[C@@H](Cc1cccc2ccccc12)C(=O)O; NHCH2CH2SCH2CO = O=C(CSCCN[*:1])[*:2]; Phe(2-F) = N[C@@H](Cc1ccccc1F)C(=O)O; Gly(octyl) = CCCCCCCC[C@H](N)C(=O)O; NMe3Pal = CN[C@@H](Cc1cccnc1)C(=O)O; X41 = COCCC[C@H](N[*:1])C(=O)[*:2]; NMeF = CN[C@@H](Cc1ccccc1)C(=O)O; hIle = CC[C@H](C)C[C@H](N)C(=O)O; 3Pal = N[C@@H](Cc1cccnc1)C(=O)O; 4Pal = N[C@@H](Cc1ccncc1)C(=O)O; Ahp(2) = CCCCC[C@H](N)C(=O)O; Cba = N[C@@H](CC1CCC1)C(=O)O; hSer = N[C@@H](CCO)C(=O)O; αMeC = C[C@](N)(CS)C(=O)O; Nle = CCCC[C@H](N)C(=O)O; Pra = C#CC[C@H](N)C(=O)O; Nva = CCC[C@H](N)C(=O)O; AEEA = NCCOCCOCC(=O)O
Target: KRAS-G12D protein (Homo sapiens, UniProt P01116, G12D)
Sequence (P01116 1-188 isoform P01116-2 G12D): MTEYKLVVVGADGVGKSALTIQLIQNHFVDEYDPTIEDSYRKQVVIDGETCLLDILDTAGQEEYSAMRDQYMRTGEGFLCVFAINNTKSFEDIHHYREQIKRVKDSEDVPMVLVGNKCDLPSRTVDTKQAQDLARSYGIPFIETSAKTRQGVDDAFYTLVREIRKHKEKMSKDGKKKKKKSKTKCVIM
Experiment: SOS-mediated nucleotide exchange assay (BODIPY-GDP / Tb-streptavidin TR-FRET)
Format: biochemical

Question: Which EC50 does the source give for CCCC[C@@H]1NC(=O)[C@H](Cc2ccc(OC)cc2)NC(=O)[C@H](CC(C)C)NC(=O)[C@H](Cc2ccc(NC(=N)N)cc2)NC(=O)[C@H](Cc2ccc3nccc(N)c3c2)NC(=O)[C@H](Cc2ccccc2)NC(=O)CSC[C@@H](C(N)=O)NC(=O)[C@H](Cc2ccccc2)N(C)C1=O [compound 29, cyclo(F-6Quin4NH2-Phe4Gn-L-TyrOMe-Nle-NMeF-Cl-ClAc)] ({CH2CO}-F[X78][Phe(4-guanidino)]LY(Me)[Nle][NMeF]C-NH2; thioether N-8) here?
Answer: 7790 nM

Question: How did the EC50 turn out when C=C(C)C[C@@H]1NC(=O)[C@H](CCCC)NC(=O)[C@H](Cc2cccnc2)NC(=O)[C@H](CCCNC(=N)N)NC(=O)[C@H](Cc2ccccc2)NC(=O)CSC[C@@](C)(C(N)=O)NC(=O)[C@H](Cc2cccnc2)N(C)C(=O)[C@H](CCCC)NC1=O [compound 44, cyclo(F-R-3Pal-Nle-deHLeu-Nle-NMe3Pal-aMeCl-ClAc)] ({CH2CO}-FR[3Pal][Nle][Leu(4,5-dehydro)][Nle][NMe3Pal][αMeC]-NH2; thioether N-8) was run?
Answer: 526 nM

Question: For CCCC[C@@H]1NC(=O)[C@H](Cc2ccc(O)cc2)NC(=O)[C@H](CC(C)C)NC(=O)[C@H](Cc2ccc(NC(=N)N)cc2)NC(=O)[C@H](CCCNC(=N)N)NC(=O)[C@H](Cc2ccccc2)NC(=O)CSC[C@@H](C(N)=O)NC(=O)[C@H](Cc2ccccc2)N(C)C1=O [compound 45, cyclo(F-R-Phe4Gn-L-Y-Nle-NMeF-Cl-ClAc)] ({CH2CO}-FR[Phe(4-guanidino)]LY[Nle][NMeF]C-NH2; thioether N-8), which EC50 is on record?
Answer: 12.6 nM

Question: Which EC50 does the source give for CCCC[C@@H]1NC(=O)[C@H](Cc2ccc(OC)cc2)NC(=O)[C@H](CC(C)C)NC(=O)[C@H](Cc2ccc(NC(=N)N)cc2)NC(=O)[C@H](CCCN=C(NC)NC)NC(=O)[C@H](Cc2ccccc2)NC(=O)CSC[C@H](C(N)=O)NC(=O)[C@H](Cc2ccccc2)N(C)C1=O [compound 46, cyclo(F-ArgMeMe-Phe4Gn-L-TyrOMe-Nle-NMeF-dCl-ClAc)] ({CH2CO}-F[Arg(Me2s)][Phe(4-guanidino)]LY(Me)[Nle][NMeF][dC]-NH2; thioether N-8) here?
Answer: 1160 nM

Question: How did the EC50 turn out when CCCC[C@@H]1NC(=O)[C@H](Cc2ccc(OC)cc2)NC(=O)[C@H](CC(C)C)NC(=O)[C@H](Cc2ccc(NC(=N)N)cc2)NC(=O)[C@H](CCC)NC(=O)[C@H](Cc2ccccc2)NC(=O)CSC[C@H](C(N)=O)NC(=O)[C@H](Cc2ccccc2)N(C)C1=O [compound 48, cyclo(F-Nva-Phe4Gn-L-TyrOMe-Nle-NMeF-dCl-ClAc)] ({CH2CO}-F[Nva][Phe(4-guanidino)]LY(Me)[Nle][NMeF][dC]-NH2; thioether N-8) was run?
Answer: 4320 nM

Question: Which EC50 does the source give for CCCC[C@@H]1NC(=O)[C@H](Cc2ccccc2F)NC(=O)[C@H](CC2CCC2)NC(=O)[C@H](CCO)NC(=O)[C@H](CCCNC(=N)N)NC(=O)[C@H](Cc2ccccc2)NC(=O)CSC[C@@](C)(C(N)=O)NC(=O)[C@H](Cc2ccccc2)N(C)C1=O [compound 50, cyclo(F-R-hS-cBuA-Phe2F-Nle-NMeF-aMeCl-ClAc)] ({CH2CO}-FR[hSer][Cba][Phe(2-F)][Nle][NMeF][αMeC]-NH2; thioether N-8) here?
Answer: 503 nM

Question: Which EC50 does the source give for C#CC[C@@H]1NC(=O)[C@H](CC2CCC2)NC(=O)[C@H](Cc2cccnc2)NC(=O)[C@H](CCCNC(=N)N)NC(=O)[C@H](Cc2ccccc2)NC(=O)CSC[C@@](C)(C(N)=O)NC(=O)[C@H](Cc2ccccc2)N(C)C(=O)[C@H](CCCC)NC1=O [compound 51, cyclo(F-R-3Pal-cBuA-Pra-Nle-NMeF-aMeCl-ClAc)] ({CH2CO}-FR[3Pal][Cba][Pra][Nle][NMeF][αMeC]-NH2; thioether N-8) here?
Answer: 298 nM

Question: CCCC[C@@H]1NC(=O)[C@H](COC)NC(=O)[C@H](CC2CCC2)NC(=O)[C@H](Cc2cccnc2)NC(=O)[C@H](CCCNC(=N)N)NC(=O)[C@H](Cc2ccccc2)NC(=O)CSC[C@@](C)(C(N)=O)NC(=O)[C@H](Cc2ccccc2)N(C)C1=O [compound 52, cyclo(F-R-3Pal-cBuA-SerOMe-Nle-NMeF-aMeCl-ClAc)] ({CH2CO}-FR[3Pal][Cba]S(Me)[Nle][NMeF][αMeC]-NH2; thioether N-8) was tested. Which EC50 did it give?
Answer: 943 nM

Question: CCCC[C@@H]1NC(=O)[C@H](CC(F)(F)F)NC(=O)[C@H](CC2CCC2)NC(=O)[C@H](Cc2cccnc2)NC(=O)[C@H](CCCNC(=N)N)NC(=O)[C@H](Cc2ccccc2)NC(=O)CSC[C@@](C)(C(N)=O)NC(=O)[C@H](Cc2ccccc2)N(C)C1=O [compound 54, cyclo(F-R-3Pal-cBuA-AbuF3-Nle-NMeF-aMeCl-ClAc)] ({CH2CO}-FR[3Pal][Cba][Abu(4,4,4-F3)][Nle][NMeF][αMeC]-NH2; thioether N-8) was tested. Which EC50 did it give?
Answer: 861 nM

Question: CCCC[C@@H]1NC(=O)[C@H](CCCOC)NC(=O)[C@H](CC2CCC2)NC(=O)[C@H](Cc2cccnc2)NC(=O)[C@H](CCCNC(=N)N)NC(=O)[C@H](Cc2ccccc2)NC(=O)CSC[C@@](C)(C(N)=O)NC(=O)[C@H](Cc2ccccc2)N(C)C1=O [compound 55, cyclo(F-R-3Pal-cBuA-NvaOMe-Nle-NMeF-aMeCl-ClAc)] ({CH2CO}-FR[3Pal][Cba][X41][Nle][NMeF][αMeC]-NH2; thioether N-8) was tested. Which EC50 did it give?
Answer: 4410 nM

Question: For CCCCC[C@@H]1NC(=O)[C@H](Cc2ccc(O)cc2)NC(=O)[C@H](CC(C)C)NC(=O)[C@H](Cc2ccc(O)cc2)NC(=O)[C@H](CCCNC(=N)N)NC(=O)[C@H](Cc2ccccc2)NC(=O)CSC[C@@H](C(=O)NCC(=O)N[C@@H](CCCCN)C(=O)N[C@@H](CCCCN)C(N)=O)NC(=O)[C@H](Cc2ccccc2)N(C)C1=O [compound 56, cyclo(F-R-Y-L-Y-Ahp-NMeF-C2-ClAc)] ({CH2CO}-FRYLY[Ahp(2)][NMeF]CGKK-NH2; thioether N-8), which EC50 is on record?
Answer: 534 nM

Question: CCCCC[C@@H]1NC(=O)[C@H](Cc2ccc(O)cc2)NC(=O)[C@H](CC(C)C)NC(=O)[C@H](Cc2ccc(O)cc2)NC(=O)[C@H](CCCNC(=N)N)NC(=O)[C@H](Cc2ccccc2)NC(=O)CSC[C@@H](C(=O)NCCOCCOCC(N)=O)NC(=O)[C@H](Cc2ccccc2)N(C)C1=O [compound 57, cyclo(F-R-Y-L-Y-Ahp-NMeF-C3-ClAc)] ({CH2CO}-FRYLY[Ahp(2)][NMeF]C[AEEA]-NH2; thioether N-8) was tested. Which EC50 did it give?
Answer: 482 nM

Question: Which EC50 does the source give for CCCCC[C@@H]1NC(=O)[C@H](Cc2ccc(O)cc2)NC(=O)[C@H](CC(C)C)NC(=O)[C@H](Cc2ccc(O)cc2)NC(=O)[C@H](CCCNC(=N)N)NC(=O)[C@H](Cc2ccccc2)NC(=O)CSC[C@@H](C(=O)NCCOCCOCC(=O)NCCOCCOCC(N)=O)NC(=O)[C@H](Cc2ccccc2)N(C)C1=O [compound 58, cyclo(F-R-Y-L-Y-Ahp-NMeF-C4-ClAc)] ({CH2CO}-FRYLY[Ahp(2)][NMeF]C[AEEA][AEEA]-NH2; thioether N-8) here?
Answer: 436 nM

Question: How did the EC50 turn out when CCCCCCCC[C@@H]1NC(=O)[C@H](Cc2ccc(O)cc2)NC(=O)[C@H](CC(C)C)NC(=O)[C@H](Cc2ccc(O)cc2)NC(=O)[C@H](CCCNC(=N)N)NC(=O)[C@H](Cc2ccccc2)NC(=O)CSC[C@@H](C(=O)NCC(=O)N[C@@H](CCCCN)C(=O)N[C@@H](CCCCN)C(N)=O)NC(=O)[C@H](Cc2ccccc2)N(C)C1=O [compound 59, cyclo(-F-R-Y-L-Y-Aca-NMeF-C2-ClAc)] ({CH2CO}-FRYLY[Gly(octyl)][NMeF]CGKK-NH2; thioether N-8) was run?
Answer: 812 nM

Question: CCC[C@@H]1NC(=O)[C@H](Cc2ccc(OC)cc2)NC(=O)[C@H](C[C@@H](C)CC)NC(=O)[C@H](Cc2ccncc2)NC(=O)[C@H](CCCNC(=N)N)NC(=O)[C@H](Cc2ccc(F)cc2)NC(=O)CSC[C@H](C(=O)O)NC(=O)[C@H](Cc2ccccc2)N(C)C1=O [compound 62, cyclo(Phe4F-R-4Pal-hlle-TyrOMe-Nva-NMeF-dC-ClAc)] ({CH2CO}-[Phe(4-F)]R[4Pal][hIle]Y(Me)[Nva][NMeF][dC]-OH; thioether N-8) was tested. Which EC50 did it give?
Answer: 2060 nM

Question: CCC[C@@H]1NC(=O)[C@H](Cc2ccc(OC)cc2)NC(=O)[C@H](CC(C)C)NC(=O)[C@H](Cc2ccncc2)NC(=O)[C@H](CCCNC(=N)N)NC(=O)[C@H](Cc2ccc(F)cc2)NC(=O)CSC[C@H](C(=O)NCC(=O)O)NC(=O)[C@H](Cc2ccccc2)N(C)C1=O [compound 65, cyclo(Phe4F-R-4Pal-L-TyrOMe-Nva-NMeF-dC5-ClAc)] ({CH2CO}-[Phe(4-F)]R[4Pal]LY(Me)[Nva][NMeF][dC]G-OH; thioether N-8) was tested. Which EC50 did it give?
Answer: 70.2 nM

Question: Which EC50 does the source give for CCC[C@@H]1NC(=O)[C@H](Cc2ccc(OC)cc2)NC(=O)[C@H](CC(C)C)NC(=O)[C@H](Cc2ccncc2)NC(=O)[C@H](CCCNC(=N)N)NC(=O)[C@H](Cc2ccc(F)cc2)NC(=O)CSC[C@H](C(=O)NCC(=O)NCC(=O)O)NC(=O)[C@H](Cc2ccccc2)N(C)C1=O [compound 66, cyclo(Phe4F-R-4Pal-L-TyrOMe-Nva-NMeF-dC6-ClAc)] ({CH2CO}-[Phe(4-F)]R[4Pal]LY(Me)[Nva][NMeF][dC]GG-OH; thioether N-8) here?
Answer: 369 nM

Question: For CCCC[C@@H]1NC(=O)[C@H](Cc2ccc(O)cc2)NC(=O)[C@H](CC(C)C)NC(=O)[C@H](Cc2ccc(O)cc2)NC(=O)[C@H](CCCNC(=N)N)NC(=O)[C@H](Cc2ccccc2)NC(=O)CSCCNC(=O)[C@H](Cc2ccccc2)N(C)C1=O [compound 69, cyclo(F-R-Y-L-Y-Nle-NMeF-Cysteamine-ClAc)], which EC50 is on record?
Answer: 1470 nM

Question: How did the EC50 turn out when CCCC[C@@H]1NC(=O)[C@H](CCCCN)NC(=O)[C@H](CCCNC(=N)N)NC(=O)[C@H](Cc2cccc3ccccc23)NC(=O)CSCCNC(=O)[C@H](Cc2ccccc2)N(C)C(=O)[C@H](CCCC)NC(=O)[C@H](Cc2ccc(O)cc2)NC1=O [compound 71, cyclo(INal-R-K-Nle-Y-Nle-NMeF-Cysteamine-ClAc)] (cyclo([1Nal]RK[Nle]Y[Nle][NMeF][NHCH2CH2SCH2CO])) was run?
Answer: 526 nM

Question: CCCC[C@@H]1NC(=O)[C@H](Cc2ccc(O)cc2)NC(=O)[C@H](CC(C)C)NC(=O)[C@H](Cc2ccc(OC)cc2)NC(=O)[C@H](CCCNC(=N)N)NC(=O)[C@H](Cc2ccccc2)NC(=O)CSCCNC(=O)[C@H](Cc2ccccc2)N(C)C1=O [compound 72, cyclo(F-R-TyrOMe-L-Y-Nle-NMeF-Cysteamine-ClAc)] was tested. Which EC50 did it give?
Answer: 2250 nM

Question: CCCC[C@@H]1NC(=O)[C@H](Cc2ccc(O)cc2)NC(=O)[C@H](CC(C)C)NC(=O)[C@H](Cc2ccc(O)cc2)NC(=O)[C@H](CCCNC(=N)N)NC(=O)[C@H](Cc2ccc(Cl)cc2)NC(=O)CSCCNC(=O)[C@H](Cc2ccccc2)N(C)C1=O [compound 74, cyclo(-Phe4Cl-R-Y-L-Y-Nle-NMeF-Cysteamine-ClAc)] (cyclo(LY[Nle][NMeF][NHCH2CH2SCH2CO][Phe(4-Cl)]RY)) was tested. Which EC50 did it give?
Answer: 7070 nM

Source: US20260001914A1, “MACROCYCLIC PEPTIDES TARGETING KRAS” (Merck Sharp & Dohme LLC, priority 2022, published 2026)
